Assay results reported in patent US20100087650A1, “(1R,1'R)-ATRACURIUM SALTS SEPARATION PROCESS” (CHEMAGIS LTD., priority 2007, published 2010).

Assays:
[1] = Stability of (1R,1′R)-atracurium besylate at different pH values in Na+CH3COO−/CH3COOH buffer; type: physicochemical; conditions: T0 to 21.0 hours
[2] = as above; type: physicochemical; conditions: for % degradation: T0 to 21.0 hours
Description: The stability of the (1R,1′R)-atracurium besylate solution at room temperature for time periods of up to 24 hours was checked using different types of buffers (varying by the nature of the cation and the anion). The diluent was a mixture of 90% buffer and 10% methanol. The Cation concentration in each buffer was 20 mM. The HPLC conditions were according to the USP procedure. The results are depicted in Tables 11 and 12. […] The degradation (D) according to the data presented in Table 12 was calculated as follows: [formula] wherein, X0=% of cisatracurium at T0, and X21=% of cisatracurium at after […].

[3] = Stability of (1R,1′R)-atracurium besylate solution in different buffers at room temperature (HPLC, USP procedure); type: physicochemical; conditions: for % of cisatracurium besylate after 24 hours / % of cisatracurium besylate at T = 0: 90% buffer/10% methanol
Description: The stability of the (1R,1′R)-atracurium besylate solution at room temperature for time periods of up to 24 hours was checked using different types of buffers (varying by the nature of the cation and the anion). The diluent was a mixture of 90% buffer and 10% methanol. The Cation concentration in each buffer was 20 mM. The HPLC conditions were according to the USP procedure. The results are depicted in Tables 11 and 12. The degradation (D), according to the data presented in Table 11, was calculated as follows: [formula] wherein, X0=% of cisatracurium at T0, and X24=% of cisatracurium at after 24 hours.

[4] = more potent than atracurium besylate itself; cited from earlier work
[5] = Stability of (1R,1′R)-atracurium besylate sample solution at pH 1.0 and 2.0 (nitrate buffer) at room temperature and 4° C.; type: physicochemical
Description: A sample solution of (1R,1′R)-atracurium besylate (10 mg/ml) was prepared using two buffer solutions at pH values of 1.0 and 2.0 and analyzed on the C18 stationary phase by gradient elution [20 mM KNO3 buffer (at pH corresponding to sample preparation)—methanol]. […] [formula] wherein, X0=% of cisatracurium at T0, and X6/26=% of cisatracurium at after 6 or 26 hours.

[6] = CaBr2/HBr buffer pH 3.5, 20 mM cation
[7] = K+H2PO4 buffer pH 3.0, 20 mM cation
[8] = NH4+CH3COO−/CH3COOH buffer pH 3.5, 20 mM cation
[9] = NH4+CH3COO−/HCOOH buffer pH 3.5, 20 mM cation
[10] = Na+CH3COO−/CH3COOH buffer pH 3.5, 20 mM cation
[11] = Na+NO3−/HNO3 buffer pH 3.0, 20 mM cation
[12] = diethylamine/CH3COOH buffer pH 3.5, 20 mM cation
[13] = triethylamine/CH3COOH buffer pH 3.5, 20 mM cation
[14] = pH = 1, room temperature, 6 hours
[15] = pH = 1, room temperature, 26 hours
[16] = pH = 2, room temperature, 6 hours

COc1ccc(C[C@@H]2c3cc(OC)c(OC)cc3CC[N@+]2(C)CCC(=O)OCCCCCOC(=O)CC[N@@+]2(C)CCc3cc(OC)c(OC)cc3[C@H]2Cc2ccc(OC)c(OC)c2)cc1OC [cisatracurium besylate, 1R-cis-1′R-cis-2,2′2,2′-[1,5-pentanediylbis[oxy(3-oxo-3,1-propanediyl)]]bis[1-[(3,4-dimethoxyphenyl)methyl]-1,2,3,4-tetrahydro-6,7-dimethoxy-2-methyl-isoquinolinium dibenzenesulfonate]
% degradation ([1]; pH 3.0, Na+CH3COO−/CH3COOH buffer): 6.4% | % degradation ([1]; pH 4.0, Na+CH3COO−/CH3COOH buffer): 10.3% | % degradation ([1]; pH 5.0, Na+CH3COO−/CH3COOH buffer): 28.4% | % degradation ([1]; pH 5.5, Na+CH3COO−/CH3COOH buffer): 48.1% | % of cisatracurium besylate ([2]; pH 3.0, Na+CH3COO−/CH3COOH buffer, 0.0 hours): 53.4% | % of cisatracurium besylate ([2]; pH 3.0, Na+CH3COO−/CH3COOH buffer, 10.0 hours): 51.3% | % of cisatracurium besylate ([2]; pH 3.0, Na+CH3COO−/CH3COOH buffer, 21.0 hours): 50.0% | change of % area of the 1R-cis,1′R-cis isomer (FIG. 7) ([2]; pH 3, after 20 hours): only slightly reduced | % of cisatracurium besylate ([2]; pH 3.5, Na+CH3COO−/CH3COOH buffer, 0.0 hours): 53.6% | % of cisatracurium besylate ([2]; pH 3.5, Na+CH3COO−/CH3COOH buffer, 10.0 hours): 51.0% | % of cisatracurium besylate ([2]; pH 3.5, Na+CH3COO−/CH3COOH buffer, 21.0 hours): 49.2% | % degradation ([2]; pH 3.5, Na+CH3COO−/CH3COOH buffer): 8.2% | % of cisatracurium besylate ([2]; pH 4.0, Na+CH3COO−/CH3COOH buffer, 0.0 hours): 53.4% | % of cisatracurium besylate ([2]; pH 4.0, Na+CH3COO−/CH3COOH buffer, 10.0 hours): 50.5% | % of cisatracurium besylate ([2]; pH 4.0, Na+CH3COO−/CH3COOH buffer, 21.0 hours): 47.9% | % of cisatracurium besylate ([2]; pH 4.5, Na+CH3COO−/CH3COOH buffer, 0.0 hours): 53.9% | % of cisatracurium besylate ([2]; pH 4.5, Na+CH3COO−/CH3COOH buffer, 10.0 hours): 49.9% | % of cisatracurium besylate ([2]; pH 4.5, Na+CH3COO−/CH3COOH buffer, 21.0 hours): 46.2% | % degradation ([2]; pH 4.5, Na+CH3COO−/CH3COOH buffer): 14.3% | % of cisatracurium besylate ([2]; pH 5.0, Na+CH3COO−/CH3COOH buffer, 0.0 hours): 53.6% | % of cisatracurium besylate ([2]; pH 5.0, Na+CH3COO−/CH3COOH buffer, 10.0 hours): 46.1% | % of cisatracurium besylate ([2]; pH 5.0, Na+CH3COO−/CH3COOH buffer, 21.0 hours): 38.4% | % of cisatracurium besylate ([2]; pH 5.5, Na+CH3COO−/CH3COOH buffer, 0.0 hours): 53.6% | % of cisatracurium besylate ([2]; pH 5.5, Na+CH3COO−/CH3COOH buffer, 10.0 hours): 40.8% | % of cisatracurium besylate ([2]; pH 5.5, Na+CH3COO−/CH3COOH buffer, 21.0 hours): 27.8% | change of % area of the 1R-cis,1′R-cis isomer (FIG. 7) ([2]; pH 5.5, after 20 hours): significantly reduced | % of cisatracurium besylate after 24 hours [3, 6]: 54.4% | % of cisatracurium besylate at T = 0 [3, 6]: 54.4% | % degradation ([3]; CaBr2/HBr buffer pH 3.5, 24 hours): 0% | % of cisatracurium besylate after 24 hours [3, 7]: 53.7% | % of cisatracurium besylate at T = 0 [3, 7]: 54.7% | % degradation ([3]; K+H2PO4 buffer pH 3.0, 24 hours): 1.8% | % of cisatracurium besylate after 24 hours [3, 8]: 52.9% | % of cisatracurium besylate at T = 0 [3, 8]: 54.7% | % degradation ([3]; NH4+CH3COO−/CH3COOH buffer pH 3.5, 24 hours): 3.3% | % of cisatracurium besylate after 24 hours [3, 9]: 54.3% | % of cisatracurium besylate at T = 0 [3, 9]: 54.6% | % degradation ([3]; NH4+CH3COO−/HCOOH buffer pH 3.5, 24 hours): 0.5% | % of cisatracurium besylate after 24 hours [3, 10]: 52.5% | % of cisatracurium besylate at T = 0 [3, 10]: 54.5% | % degradation ([3]; Na+CH3COO−/CH3COOH buffer pH 3.5, 24 hours): 3.7% | % of cisatracurium besylate after 24 hours [3, 11]: 54.5% | % of cisatracurium besylate at T = 0 [3, 11]: 54.5% | % degradation ([3]; Na+NO3−/HNO3 buffer pH 3.0, 24 hours): 0% | % of cisatracurium besylate after 24 hours [3, 12]: 53.2% | % of cisatracurium besylate at T = 0 [3, 12]: 54.7% | % degradation ([3]; diethylamine/CH3COOH buffer pH 3.5, 24 hours): 2.7% | % of cisatracurium besylate after 24 hours [3, 13]: 52.1% | % of cisatracurium besylate at T = 0 [3, 13]: 54.4% | % degradation ([3]; triethylamine/CH3COOH buffer pH 3.5, 24 hours): 4.2% | potency relative to atracurium besylate [4]: 3-4 times | % area of the cis-cis isomer ([5]; pH = 1, 4° C., 0 hours): 54.9% | % area of the cis-cis isomer ([5]; pH = 1, 4° C., 6 hours): 53.9% | D, % (degradation) ([5]; pH = 1, 4° C., 6 hours): 1.8% | % area of the cis-cis isomer ([5]; pH = 1, 4° C., 26 hours): 52.8% | D, % (degradation) ([5]; pH = 1, 4° C., 26 hours): 3.8% | % area of the cis-cis isomer ([5]; pH = 1, room temperature, 0 hours): 54.9% | % area of the cis-cis isomer [5, 14]: 50.2% | D, % (degradation) [5, 14]: 8.6% | % area of the cis-cis isomer [5, 15]: 38.8% | D, % (degradation) [5, 15]: 29.3% | % area of the cis-cis isomer ([5]; pH = 2, 4° C., 0 hours): 54.8% | % area of the cis-cis isomer ([5]; pH = 2, 4° C., 6 hours): 54.8% | D, % (degradation) ([5]; pH = 2, 4° C., 6 hours): 0% | % area of the cis-cis isomer ([5]; pH = 2, 4° C., 26 hours): 54.7% | D, % (degradation) ([5]; pH = 2, 4° C., 26 hours, nitrate buffer): 0.2% | % area of the cis-cis isomer ([5]; pH = 2, room temperature, 0 hours): 54.8% | % area of the cis-cis isomer [5, 16]: 54.5% | D, % (degradation) [5, 16]: 0.5% | % area of the cis-cis isomer ([5]; pH = 2, room temperature, 26 hours): 53.8% | D, % (degradation) ([5]; pH = 2, room temperature, 26 hours, nitrate buffer): less than 2% | D, % (degradation) ([5]; pH = 2, room temperature, 26 hours, nitrate buffer, listed as cis-cis isomer): 1.8% | stability under the separation conditions ([5]; separation conditions of the invention (mildly acidic or buffered aqueous mobile phase)): substantially stable
